According to patent publication US12162867B2, “Inhibitors of RNA helicase DHX9 and uses thereof” (ACCENT THERAPEUTICS, INC., priority 2022, dated 2024):
Like-named read-outs stand apart in the source and are kept apart here.

Tests used:
[1] = system: NCI-H747 cells; assay: DHX9 cellular proliferation assay (CellTiter-Glo), NCI-H747 (CRC-MSS); assay type: cell-based; conditions: performed at Pharmaron, read-out: H747 (CRC-MSS) Antiproliferative IC50
[2] = molecular target: T1, Human recombinant DHX9 protein (Homo sapiens, UniProt Q08211); assay: DHX9 ATPase assay (ADP-Glo); assay type: biochemical
T1 construct: purchased Viva

[3] = system: LS411N cells; assay: DHX9 cellular proliferation assay (CellTiter-Glo), LS411N (CRC-MSI); assay type: cell-based; conditions: LS411N, performed at Pharmaron, read-out: LS411N (CRC-MSI-H) Antiproliferative IC50
[4] = system: circBRIP1 in HCT116 cells; assay: DHX9 circBRIP1 cellular target engagement TaqMan Multiplex assay (qPCR); assay type: cell-based; conditions: * Taqman assay was used, read-out: DHX9 Cellular Target Engagement EC50
[5] = Homo sapiens, NCI-H747, NCI-H747
[6] = Homo sapiens, HCT-116, circBRIP1, HCT116 cells

T1 sequence (Q08211 whole entry): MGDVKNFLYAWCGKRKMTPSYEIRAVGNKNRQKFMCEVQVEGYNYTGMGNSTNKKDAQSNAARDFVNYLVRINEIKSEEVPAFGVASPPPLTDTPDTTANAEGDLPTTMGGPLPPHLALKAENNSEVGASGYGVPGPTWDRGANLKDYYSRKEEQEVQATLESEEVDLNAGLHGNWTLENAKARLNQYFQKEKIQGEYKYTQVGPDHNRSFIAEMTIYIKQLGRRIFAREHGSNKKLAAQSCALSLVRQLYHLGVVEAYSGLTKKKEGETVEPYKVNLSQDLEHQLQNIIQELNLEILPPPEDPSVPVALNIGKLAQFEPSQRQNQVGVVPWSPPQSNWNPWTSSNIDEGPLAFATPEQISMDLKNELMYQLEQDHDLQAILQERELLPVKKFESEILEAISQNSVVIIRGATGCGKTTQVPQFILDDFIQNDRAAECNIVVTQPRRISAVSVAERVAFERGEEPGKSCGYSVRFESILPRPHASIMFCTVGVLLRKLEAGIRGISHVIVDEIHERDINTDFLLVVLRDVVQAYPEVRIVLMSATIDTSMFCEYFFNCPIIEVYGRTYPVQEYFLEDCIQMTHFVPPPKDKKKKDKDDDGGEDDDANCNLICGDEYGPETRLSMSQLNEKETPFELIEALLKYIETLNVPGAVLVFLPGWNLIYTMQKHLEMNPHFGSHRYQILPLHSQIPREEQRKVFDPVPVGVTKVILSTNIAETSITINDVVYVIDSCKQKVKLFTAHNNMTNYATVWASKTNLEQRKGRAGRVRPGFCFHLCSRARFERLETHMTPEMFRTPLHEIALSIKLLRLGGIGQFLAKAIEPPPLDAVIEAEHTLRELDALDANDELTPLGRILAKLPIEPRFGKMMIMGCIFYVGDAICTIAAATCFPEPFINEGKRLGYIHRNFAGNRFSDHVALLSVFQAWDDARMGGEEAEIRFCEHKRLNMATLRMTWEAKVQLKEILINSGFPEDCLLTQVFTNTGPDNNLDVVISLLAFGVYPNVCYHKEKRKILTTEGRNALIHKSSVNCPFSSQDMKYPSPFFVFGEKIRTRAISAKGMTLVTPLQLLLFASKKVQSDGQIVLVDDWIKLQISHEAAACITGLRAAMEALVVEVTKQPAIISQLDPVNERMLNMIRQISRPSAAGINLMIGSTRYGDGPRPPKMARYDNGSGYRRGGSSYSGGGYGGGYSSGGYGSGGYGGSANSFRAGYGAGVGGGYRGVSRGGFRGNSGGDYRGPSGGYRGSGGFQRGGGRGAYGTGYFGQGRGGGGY

| Compound | IC50 [1, 5] [nM] | DHX9 Biochemical Max Inhibition (%) [2] [%] | IC50 ([3]; Homo sapiens, LS-411N) [nM] | EC50 [4, 6] [nM] | IC50 ([1]; NCI-H747) [nM] | IC50 [3] [nM] | EC50 ([4]; circBRIP1, HCT116 cells) [nM] | IC50 ([2]; read-out: DHX9 Biochemical Inflection Point) [nM] |
| --- | --- | --- | --- | --- | --- | --- | --- | --- |
| Cc1sc(C(=O)Nc2cc(Cl)cc(NS(C)(=O)=O)c2)cc1-c1ncccc1OC(C)c1cc(F)cc(F)c1 (single isomer, unassigned) [Example 632] | > 10000 | 71.5 | 96.8 | 112 |  |  |  |  |
| Cc1sc(C(=O)Nc2cc(Cl)cc(NS(C)(=O)=O)c2)cc1-c1ncc(N2CCC3(C2)CC3(F)F)cn1 (centres unmarked) [Example 491] | 2160 | 72 | 59.1 | 20.7 |  |  |  |  |
| CCS(=O)(=O)Nc1cc(Cl)cc(NC(=O)c2cc(-c3ncc(N4CC(F)(F)C4)cc3F)n(C)c2)c1 [Example 517] |  | 54.1 |  |  | 2220 | 135 | 16.8 |  |
| CN1CC(Oc2ccc(-c3cc(C(=O)Nc4cc(Cl)cc(NS(C)(=O)=O)c4)cn3C)nc2)C1 [Example 612, N-(3-chloro-5-methanesulfonamidophenyl)-1-methyl-5-{5-[(1-methylazetidin-3-yl)oxy]pyridin-2-yl}pyrrole-3-carboxamide] | > 10000 | 70 | 281 | 21.2 |  |  |  | 10.1 |
